In one assay the target is T1, PARP (Homo sapiens, UniProt P09874).
T1 construct: purchased Trevigen 4684-096-01 (enzyme); kit 4684-096-K HT
Put plainly: PARP ELISA (ELISA-based colorimetric PARP/Apoptosis Assay kit), inhibition of PARP catalytic activity. Format: biochemical. As to conditions: pIC50 = -log10 IC50 (molar); 0.1 nM PARP stock, 100 μM NAD+ stock with activated DNA, 10 min catalysis. The method, then:
Inhibition Constant (IC50) from PARP ELISA
Inhibition of PARP catalytic activity was determined by use of an ELISA-based colorimetric PARP/Apoptosis Assay kit (part number 4684-096-K HT, Trevigen). To each histone coated well in the 96-well plate supplied by the manufacturer (part number 4677-096-P) is added 39 μL of PARP buffer (part number 4671-096-02) and 1 μL of test compound dissolved in DMSO (diluted serially 3-fold 11 times). After mixing, 5 μL of 0.1 nM PARP (part number 4684-096-01) is added and the solution allowed to stand at ambient temperature for 10 minutes. PARP catalysis is initiated with the addition of 5 μL of 100 μM β-nicotinamide adenine dinucleotide (NAD+) (part number 4684-096-02) with activated DNA (part number 4671-096-06). After 10 minutes of catalysis the reaction is quenched by solvent aspiration followed by irrigation of the assay wells 4 times with phosphate buffered saline (PBS) containing 0.1% t-octylphenoxypolyethoxyethanol (Triton® X-100). Mouse Anti-poly ADP ribose (PAR) monoclonal antibody, goat antimouse immunoglobulin G (IgG)-horse radish peroxidase (HRP) conjugate and HRP substrate are added according to the manufacture's specifications to generate a colorimetric signal proportional to PARP catalytic activity. An IC50 for the test compound is calculated from the equation Absorbance=(Amax−background)/(1+([cmpd]/IC50)^n)+background fit to the 12 point test compound concentration gradient via nonlinear least squares.
(§1) Here, pIC50=−log10 IC50, where IC50 is the molar concentration of the compound at 50% inhibition.

In another assay the test system is Jurkat cell line. Put plainly: PARP cellular chemopotentiation assay (MTS viability, with and without Temozolomide). The conditions noted are these: Chemopotentiation factor: ratio of EC50 for cell viability without and with 100 μM TMZ, Jurkat cells, 96 hours of treatment. Format: cell-based. The method, then:
Potentiation Factor (PF50) Determination from PARP Cellular Chemopotentiation Assay
Jurkat cell line was maintained according to the supplier (American Type Culture Collection (Rockville, Md.)). Cells were seeded in 96-well tissue culture microplates at 10,000 cells per well and cultured for 24 hours prior to addition of compounds, TMZ (Temozolomide) or DMSO (dimethylsulfoxide) vehicle. After 96 hours of treatment, the conversion of MTS ([3-(4,5-dimethylthiazol-2-yl)-5-(3-carboxymethoxyphenyl)-2-(4-sulfophenyl)-2H-tetrazolium, inner salt], Promega, Madison, Wis.) by metabolically active cells was determined through measuring the OD490 nm with a Spectramax microplate reader (Molecular Devices, San Diego, Calif.). To generate concentration-response curves, cells were treated in duplicate with a range of serial compound dilutions (final DMSO concentration was 0.5%) in the absence or presence of 100 μM TMZ chemoreagent. The percentage of viable cells per well was calculated by correction for background and normalizing against DMSO-treated cells. EC50 values for inhibition of cell viability were calculated using XLfit4 MicroSoft Excel curve-fitting software. Chemopotentiation factor PF50 was calculated as the ratio of EC50 values of cells co-treated without and with TMZ, respectively.
as §1

Structures are written as SMILES.

T1 sequence (P09874 whole entry): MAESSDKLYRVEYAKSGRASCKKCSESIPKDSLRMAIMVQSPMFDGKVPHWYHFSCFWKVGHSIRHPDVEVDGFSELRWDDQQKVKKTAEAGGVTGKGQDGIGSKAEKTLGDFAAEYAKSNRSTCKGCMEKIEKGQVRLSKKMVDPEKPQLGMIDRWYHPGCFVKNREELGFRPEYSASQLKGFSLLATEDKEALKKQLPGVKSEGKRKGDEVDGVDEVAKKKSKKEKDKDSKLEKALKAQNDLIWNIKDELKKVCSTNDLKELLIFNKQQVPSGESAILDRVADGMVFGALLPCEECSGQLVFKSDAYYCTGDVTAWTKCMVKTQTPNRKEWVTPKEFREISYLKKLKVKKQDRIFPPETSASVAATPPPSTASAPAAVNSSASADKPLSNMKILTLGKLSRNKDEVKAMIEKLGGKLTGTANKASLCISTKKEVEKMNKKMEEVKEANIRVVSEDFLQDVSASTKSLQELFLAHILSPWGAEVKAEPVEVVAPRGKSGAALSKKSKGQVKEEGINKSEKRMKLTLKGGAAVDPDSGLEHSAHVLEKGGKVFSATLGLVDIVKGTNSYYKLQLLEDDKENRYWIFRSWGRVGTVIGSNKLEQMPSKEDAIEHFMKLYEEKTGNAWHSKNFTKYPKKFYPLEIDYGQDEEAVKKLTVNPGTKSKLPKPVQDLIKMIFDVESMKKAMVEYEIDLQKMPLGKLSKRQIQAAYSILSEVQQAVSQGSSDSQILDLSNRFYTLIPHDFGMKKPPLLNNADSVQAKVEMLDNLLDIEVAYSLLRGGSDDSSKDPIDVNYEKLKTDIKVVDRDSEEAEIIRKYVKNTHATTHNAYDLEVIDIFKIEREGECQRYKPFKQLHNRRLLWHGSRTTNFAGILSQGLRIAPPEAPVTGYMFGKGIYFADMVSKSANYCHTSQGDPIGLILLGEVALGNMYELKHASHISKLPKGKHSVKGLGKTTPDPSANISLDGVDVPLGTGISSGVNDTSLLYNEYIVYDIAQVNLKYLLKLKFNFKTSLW

Take `CCNC(=O)c1ccc(N2CCN(Cc3cnc4c(c3)[nH]c(=O)n3cccc43)CC2)cc1` [Example 2, N-ethyl-4-(4-((6-oxo-5,6-dihydropyrido[2,3-e]pyrrolo[1,2-c]pyrimidin-3-yl)methyl)piperazin-1-yl)benzamide]: the IC50 (commonly the concentration needed to halve the response being measured) on PARP was at most 10 nM. Further, in the assay with Jurkat cell line, the PF50 was above 1000.
The compound `CNC(=O)c1ccc(N2CCN(Cc3cnc4c(c3)[nH]c(=O)n3cccc43)CC2)cc1` [Example 3, N-methyl-4-(4-((6-oxo-5,6-dihydropyrido[2,3-e]pyrrolo[1,2-c]pyrimidin-3-yl)methyl)piperazin-1-yl)benzamide] had an IC50 on PARP of at most 10 nM. Moreover, the PF50 in the assay with Jurkat cell line is on record as above 24000.
As for `O=C(NC1CC1)c1ccc(N2CCN(Cc3cnc4c(c3)[nH]c(=O)n3cccc43)CC2)cc1` [Example 4, N-cyclopropyl-4-(4-((6-oxo-5,6-dihydropyrido[2,3-e]pyrrolo[1,2-c]pyrimidin-3-yl)methyl)piperazin-1-yl)benzamide], on PARP, the IC50 was at most 10 nM. In the assay on Jurkat cell line, the PF50 is above 1000.
In turn, `CNC(=O)c1ccc(N2CCN(Cc3cnc4c(c3)[nH]c(=O)n3cccc43)CC2)c(Cl)c1` [Example 5, 3-chloro-N-methyl-4-(4-((6-oxo-5,6-dihydropyrido[2,3-e]pyrrolo[1,2-c]pyrimidin-3-yl)methyl)piperazin-1-yl)benzamide] showed an IC50 against PARP of at most 10 nM. The PF50 with Jurkat cell line is reported as above 63.
In the same order, the values of `CCNC(=O)c1ccc(N2CCN(Cc3cnc4c(c3)[nH]c(=O)n3cccc43)CC2)c(Cl)c1` [Example 6, 3-chloro-N-ethyl-4-(4-((6-oxo-5,6-dihydropyrido[2,3-e]pyrrolo[1,2-c]pyrimidin-3-yl)methyl)piperazin-1-yl)benzamide] are at most 10 nM and above 1000.
On PARP, `CNC(=O)c1ccc(N2CCN(Cc3cnc4c(c3)[nH]c(=O)n3cccc43)CC2)c(C)c1` [Example 7, N,3-dimethyl-4-(4-((6-oxo-5,6-dihydropyrido[2,3-e]pyrrolo[1,2-c]pyrimidin-3-yl)methyl)piperazin-1-yl)benzamide] had an IC50 of at most 10 nM. Moreover, the PF50 in the assay on Jurkat cell line is above 900.
The matching figures for `CCNC(=O)c1ccc(N2CCN(Cc3cnc4c(c3)[nH]c(=O)n3cccc43)CC2)c(C)c1` [Example 8, N-ethyl-3-methyl-4-(4-((6-oxo-5,6-dihydropyrido[2,3-e]pyrrolo[1,2-c]pyrimidin-3-yl)methyl)piperazin-1-yl)benzamide]: at most 10 nM and above 1600.
The matching figures for `CNC(=O)c1ccc(N2CCN(Cc3cnc4c(c3)[nH]c(=O)n3cccc43)CC2)c(F)c1` [Example 9, 3-fluoro-N-methyl-4-(4-((6-oxo-5,6-dihydropyrido[2,3-e]pyrrolo[1,2-c]pyrimidin-3-yl)methyl)piperazin-1-yl)benzamide]: at most 10 nM and above 16.
At PARP, `CCNC(=O)c1ccc(N2CCN(Cc3cnc4c(c3)[nH]c(=O)n3cccc43)CC2)c(F)c1` [Example 10, N-ethyl-3-fluoro-4-(4-((6-oxo-5,6-dihydropyrido[2,3-e]pyrrolo[1,2-c]pyrimidin-3-yl)methyl)piperazin-1-yl)benzamide] showed a half-inhibitory concentration (IC50) of at most 10 nM. Further, the PF50 in the assay on Jurkat cell line is above 60.
